Assay results: patent US8507512B2, “Soluble guanylate cyclase activators” (Merck Sharp & Dohme Corp., priority 2009, dated 2013)

Biological target: T1, sGC α1/β1 heterodimer (Homo sapiens, UniProt Q02108+Q02153)
T1 construct: expressed in transfected cells
T1 sequence (Q02108 1-690 partner): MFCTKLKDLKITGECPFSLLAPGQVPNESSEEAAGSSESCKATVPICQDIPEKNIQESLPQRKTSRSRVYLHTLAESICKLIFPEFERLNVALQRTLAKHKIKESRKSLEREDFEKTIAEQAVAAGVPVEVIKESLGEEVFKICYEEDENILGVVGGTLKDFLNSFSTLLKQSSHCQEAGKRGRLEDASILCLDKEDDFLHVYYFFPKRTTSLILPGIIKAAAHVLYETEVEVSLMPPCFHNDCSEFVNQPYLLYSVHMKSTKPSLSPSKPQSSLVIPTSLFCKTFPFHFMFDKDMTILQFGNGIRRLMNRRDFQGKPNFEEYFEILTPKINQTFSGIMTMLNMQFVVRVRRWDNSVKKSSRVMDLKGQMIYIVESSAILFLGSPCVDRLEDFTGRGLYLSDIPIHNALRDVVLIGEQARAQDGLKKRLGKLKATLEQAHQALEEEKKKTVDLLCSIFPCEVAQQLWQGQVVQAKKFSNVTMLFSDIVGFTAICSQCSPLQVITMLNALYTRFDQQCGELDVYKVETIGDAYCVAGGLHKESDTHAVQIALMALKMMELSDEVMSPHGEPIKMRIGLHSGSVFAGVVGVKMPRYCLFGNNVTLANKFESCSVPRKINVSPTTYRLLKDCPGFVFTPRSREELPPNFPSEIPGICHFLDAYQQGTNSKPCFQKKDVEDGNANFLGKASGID
T1 sequence (Q02153 1-619): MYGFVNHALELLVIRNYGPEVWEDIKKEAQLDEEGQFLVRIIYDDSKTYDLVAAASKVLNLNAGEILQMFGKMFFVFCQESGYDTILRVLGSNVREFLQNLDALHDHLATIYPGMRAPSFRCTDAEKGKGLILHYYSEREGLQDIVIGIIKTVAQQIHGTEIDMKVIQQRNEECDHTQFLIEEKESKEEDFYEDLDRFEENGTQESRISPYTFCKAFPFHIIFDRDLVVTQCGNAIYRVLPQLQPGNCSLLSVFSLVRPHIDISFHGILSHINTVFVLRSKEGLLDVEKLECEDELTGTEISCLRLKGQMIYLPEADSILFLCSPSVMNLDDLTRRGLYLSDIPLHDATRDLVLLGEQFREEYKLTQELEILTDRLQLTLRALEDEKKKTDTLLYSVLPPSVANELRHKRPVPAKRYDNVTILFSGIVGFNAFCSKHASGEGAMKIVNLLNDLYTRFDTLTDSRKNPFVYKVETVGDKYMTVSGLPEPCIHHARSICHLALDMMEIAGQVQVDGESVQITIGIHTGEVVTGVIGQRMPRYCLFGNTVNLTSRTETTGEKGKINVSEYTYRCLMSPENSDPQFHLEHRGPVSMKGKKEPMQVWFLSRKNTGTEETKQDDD
Experiment: Cell-Based sGC Functional Assay (CASA Assay)
Conditions: CHO-K1/sGC cells, with ODQ incubation (10 μM), 1 hr at 37° C., intracellular cGMP by HTRF; for EC50: read-out: IP (nM) (inflection point); for fold induction: read-out: maximum fold induction over DMSO control
Protocol: Cell-Based sGC Functional Assay (CASA Assay)
Rationale: sGC is a heme-containing enzyme that converts GTP (guanosine 5′-triphosphate) to secondary messenger cGMP. Increases in cGMP levels affect several physiological processes including vasorelaxation through multiple downstream pathways. […] Heme-independent activators (HIAs) preferentially activate sGC containing a ferric heme group, which can be generated upon incubation with 1H-(1,2,4)oxadiazolo(4,3-a) quinoxalin-1-one (ODQ). To determine the effect of sGC activators on enzyme activity, the CASA assay was developed to monitor the generation of cGMP in a cell line that stably expresses the heterodimeric sGC protein.
Methods: A CHO-K1 cell line stably expressing the sGC αl/β1 heterodimer was generated using a standard transfection protocol. CHO-K1 cells were transfected with plasmids pIREShyghsGCα1 and pIRESneo-hsGCβ1 simultaneously using FUGENE reagent. Clones that stably express both subunits were selected with hygromycin and neomycin for ˜2 weeks. Clone #7 was chosen for the assay and was designated CHO-K1/sGC. CHO-K1/sGC cells were maintained in F-K12 medium containing 10% heat-inactivated Fetal Bovine Serum (FBS), 100 μg/mL penicillin/streptomycin, 0.5 mg/mL hygromycin and 0.25 mg/mL G418. On the day of the assay, cells were harvested in EBSS (Earle's balanced salt solution) Assay Buffer (EAB) containing 5 mM MgCl2, 10 mM HEPES (4-(2-hydroxyethyl)piperazine-1-ethanesulfonic acid) and 0.05% BSA (bovine serum albumin) and cell density was adjusted to 2×10^6/mL with EAB. IBMX (3-isobutyl-1-methylxanthin, 0.5 mM) was added to inhibit degradation of cGMP. Compounds were diluted from DMSO stock solutions and added to the assay at a final DMSO concentration of 1%. Cells were incubated with compounds in the presence and absence of 10 μM of 1H-(1,2,4)oxadiazolo(4,3-a) quinoxalin-1-one (ODQ) for 1 hr at 37° C. At the end of the incubation period, the reaction was terminated and the cells were lysed. The level of intracellular cGMP was determined using an HTRF-based assay kit (CisBio, 62GM2PEC), which detects the displacement of a fluorescence labeled cGMP from its specific antibody. The amount of cGMP was plotted against compound concentration in PRISM software and the inflection point (IP) and maximum fold induction over DMSO control were derived from the plot.

| Compound | EC50 [nM] | fold induction |
| --- | --- | --- |
| O=C(O)c1cnn(-c2cccc(-c3ccccc3OCc3ccc(C4CCN(CC(F)(F)F)CC4)cc3)n2)c1C(F)(F)F [Example 1, 1-[6-[2-[[4-[1-(2,2,2-Trifluoroethyl)-4-piperidinyl]phenyl]methoxy]phenyl]-2-pyridinyl]-5-(trifluoromethyl)-1H-pyrazole-4-carboxylic acid] | 51.5 | 281 |
| O=C(O)c1cnn(-c2cccc(-c3cc(F)cc(Cl)c3OCc3ccc(C4CCN(CC(F)(F)F)CC4)cc3)n2)c1C(F)(F)F [Example 2, 1-(6-(3-Chloro-5-fluoro-2-((4-(1-(2,2,2-trifluoroethyl)piperidin-4-yl)benzyl)oxy)phenyl)pyridin-2-yl)-5-(trifluoromethyl)-1H-pyrazole-4-carboxylic acid] | 2.4 | 189 |
| Cc1cc(C2CCN(CC(F)(F)F)CC2)ccc1COc1ccccc1-c1cccc(-n2ncc(C(=O)O)c2C(F)(F)F)n1 [Example 3, 1-(6-(2-((2-Methyl-4-(1-(2,2,2-trifluoroethyl)piperidin-4-yl)benzyl)oxy)phenyl)pyridin-2-yl)-5-(trifluoromethyl)-1H-pyrazole-4-carboxylic acid] | 10.4 | 127 |
| COC(=O)N1CCC(c2ccc(COc3c(F)cccc3-c3cccc(-n4ncc(C(=O)O)c4C(F)(F)F)n3)cc2)CC1 [Example 5, 1-{6-[3-fluoro-2-({4-[1-(methoxycarbonyl)piperidin-4 yl]benzyl}oxy)phenyl]pyridin-2-yl}-5-(trifluoromethyl)-1H-pyrazole-4-carboxylic acid] | 26.9 | 244 |
| CCC(=O)N1CCC(c2ccc(COc3c(-c4cccc(-n5ncc(C(=O)O)c5C(F)(F)F)n4)cccc3C(F)(F)F)cc2)CC1 [Example 76, 1-(6-(2-((4-(1-propionylpiperidin-4-yl)benzyl)oxy)-3-(trifluoromethyl)phenyl)pyridin-2-yl)-5-(trifluoromethyl)-1H-pyrazole-4-carboxylic acid] | < 0.5 | 216 |
| COC(=O)N1CCC(c2ccc(COc3c(-c4cccc(-n5ncc(C(=O)O)c5C(F)(F)F)n4)cccc3C(F)(F)F)cc2)CC1 [Example 77, 1-(6-(2-((4-(1-(methoxycarbonyl)piperidin-4-yl)benzyl)oxy)-3-(trifluoromethyl)phenyl)pyridin-2-yl)-5-(trifluoromethyl)-1H-pyrazole-4-carboxylic acid] | 1.5 | 151 |
| O=C(O)c1cnn(-c2cccc(-c3cccc(C(F)(F)F)c3OCc3ccc(C4CCN(C(=O)C5CC5)CC4)cc3)n2)c1C(F)(F)F [Example 81, 1-(6-(2-((4-(1-(cyclopropylcarbonyl)piperidin-4-yl)benzyl)oxy)-3-(trifluoromethyl)phenyl)pyridin-2-yl)-5-(trifluoromethyl)-1H-pyrazole-4-carboxylic acid] | 2.6 | 170 |
| O=C(O)c1cnn(-c2cccc(-c3cccc(Cl)c3OCc3ccc(C4CCN(C(=O)C5CC5)CC4)cc3)n2)c1C(F)(F)F [Example 84, 1-(6-(3-chloro-2-((4-(1-(cyclopropylcarbonyl)piperidin-4-yl)benzyl)oxy)phenyl)pyridin-2-yl)-5-(trifluoromethyl)-1H-pyrazole-4-carboxylic acid] | 5.4 | 50 |
